One block for each compound: values may come before it. Where a SMILES comes first, the peptide text is derived from it.
Experiments:
rat adipocytes = type: cell-based
Description: (§1) Preparation of Adipocytes--The procedure has been described in detail previously. Briefly, male Wistar rats (100-150 g) were decapitated, and the epididymal fat pads removed and minced with scissors into KRHB (Krebs-Ringer/HEPES/Bovine serum albumin (BSA) buffer: 80 mM NaCl, 4.7 mM KCl, 2.5 mM CaCl2, 1.2 mM MgSO4, 50 mM HEPES, 5% BSA (Sigma, radioimmunoassay grade), pH 7.2) containing 5 mM D-glucose and 1 mg/ml collagenase (type I, Worthington) and digested (1 hr, 37° C.) with gentle shaking (250 cycles per minute). The adipocytes were washed five times in KRHB (each wash in a volume ten times the cell volume). The adipocyte layer was finally diluted with KRHB to a 10% (v/v) suspension as estimated by the volume of packed cells (lipocrit).
Glucose uptake in vitro--The uptake of [^14 C]glucose (D-[U-^14 C]glucose, Amersham, (300 Ci/mol)) by isolated rat adipocytes was measured as follows unless otherwise stated: 50 μl adipocyte cell suspension was pipetted into "Nunc-Immuno tube minisorp" (Nunc, Denmark) and preincubated at 37° C. with gentle shaking (225 cycles per minute) for 30 min. Hormones and peptides were added in 50 μl KRHB and incubated for 30 min at 37° C. Before addition to cells, all solutions were neutralized to pH 7.2. [^14 C]glucose tracer (~100,000 dpm) was added and the incubation continued for another 20 minutes at 37° C. The assay was terminated by centrifugation of 100 μl sample on top of 250 μl silicone oil (Thomas Scientific) in 500 μl tubes in a microfuge (10,000×g) for 1 min. The tube was cut just below the adipocyte layer and the amount of radioactivity in the adipocytes determined by scintillation counting. The precise concentration of [^14 C]glucose was calculated from total counts added.

purified human IR = biological target: T1, purified human IR (Homo sapiens, UniProt P06213); test: Tyrosine kinase activity of purified IR (autophosphorylation); type: biochemical
T1 construct: The product was a tetramer with two heavy chains, each ~130 kDa, and two light chains, each ~90 kDa; from tissue; host or cells: human placenta
Description: The purified human IR and the cloned cytoplasmic kinase domain (IRKD) have been described (Ellis et al., (1988) Virology 62:1634-39; Roth et al., (1986) J. Biol. Chem. 261:3753-57). Briefly, the human IR was purified from placenta by immunoaffinity columns, using monoclonal antibodies and binding of IR to wheat germ agglutinin. The product was a tetramer with two heavy chains, each ~130 kDa, and two light chains, each ~90 kDa. […] When peptide was used, it was added in 5.0 μl, the volume adjusted to 20 μl by adding buffer, and the mixture incubated (1 hr, 4° C.). After incubation, 10 μl of a solution containing 2.5 μCi ^32 P-labeled ATP (3,000 Ci/mmol; γ-labeled; Amersham) 50 mM HEPES, pH 7.6, 150 mM NaCl, 0.1% Triton X-100, 37.5 μM unlabeled ATP, 15 mM MgCl2, and 6 mm MnCl2 was added to a final volume of 30 μ l. The mixture was then incubated for 30 min. at 24° C. After incubation, 15 μl sample buffer was added, and the sample was boiled for 5 min., and run on 10% SDS-PAGE overnight. The gel was dried, and autoradiograms processed with an exposure time of 5-10 hr. For quantitative estimates the β-subunit band of IR and the IRKD bands were cut out and counted dry (Cerenkov) in a scintillation counter.

EGFR = biological target: T2, EGFR (Rattus norvegicus, UniProt G3V6K6); test: Cell-associated 125I-labeled EGF on rat adipocytes; type: binding
T2 construct: male Wistar rats (100-150 g) were decapitated, and the epididymal fat pads removed; endogenous in cells; host or cells: freshly isolated epididymal adipocytes of male Wistar rats
Description: as §1
Cell-associated ^125 I-labeled EGF--50 μl adipocyte cell suspension was pipetted into "Nunc-Immuno tube minisorp" (Nunc, Denmark) and preincubated at 37° C. with gentle shaking (225 cycles per minute) for 30 min. […] The assay was terminated by centrifugation of 75 μl sample as described above for glucose uptake, and the cell-associated as well as the free ^125 I-labeled EGF was determined by γ-counting. […] The data were calculated as specific cell-associated ^125 I-labeled EGF and the maximal value was in each experiment set to 100%.

rats = test: Blood glucose levels in whole rats after i.v. injection; type: in vivo, rat; conditions: insulin alone 10 μg/kg i.v.
Description: The effect of D^k -(61-85) in whole rats was determined. […] All animals were starved 16-20 hrs. prior to experimentation. Each determination was based on results as obtained from 42 rats, where the same rats were used in the four treatment schedules. The schedules were a control, a peptide by itself, insulin by itself, and insulin plus peptide. […] The peptide, at about 20 min., the blood glucose had dropped to about 65% of its original value and then slowly rose back to about the original value at about 90 min. and was maintained about the same level.

EC50 (rat adipocytes): 10 to 15 µM
Compound: CC[C@H](C)[C@H](NC(=O)[C@H](CCC(N)=O)NC(=O)[C@@H](NC(=O)[C@H](CCC(=O)O)NC(=O)[C@H](CCCNC(=N)N)NC(=O)[C@@H](N)CCC(=O)O)[C@@H](C)O)C(=O)N[C@@H](C)C(=O)N[C@@H](CCCCN)C(=O)NCC(=O)N[C@@H](CC(N)=O)C(=O)N[C@@H](CCC(=O)O)C(=O)N[C@@H](CCC(N)=O)C(=O)N[C@@H](CO)C(=O)N[C@@H](Cc1ccccc1)C(=O)N[C@@H](CCCNC(=N)N)C(=O)N[C@H](C(=O)N[C@@H](CC(=O)O)C(=O)N[C@@H](CC(C)C)C(=O)N[C@@H](CCCNC(=N)N)C(=O)N[C@H](C(=O)N[C@@H](CC(C)C)C(=O)N[C@@H](CC(C)C)C(=O)N[C@@H](CCCNC(=N)N)C(=O)N[C@@H](Cc1ccc(O)cc1)C(=O)N[C@@H](Cc1ccc(O)cc1)C(=O)O)[C@@H](C)O)C(C)C [D^k-(61-85)] (H-ERETQIAKGNEQSFRVDLRTLLRYY-OH)

Apparent affinity of specific cell-associated EGF (EGFR): low nanomolar range
Compound: EGF: epidermal growth factor (mouse), Collaborative Research
Glucose uptake above basal (rat adipocytes; EGF alone): ~ 50%

EC50 (purified human IR; insulin as stimulus): ~0.003 µM
Compound: insulin: unlabeled porcine insulin (NOVO)
Blood glucose course compared with peptide alone (rats): A similar result

Continued, compound first:

Compound: ACTH-(1-24): human ACTH-(1-24), routine control peptide, Peninsula Laboratories
Substrate for IR tyrosine Kinase (purified human IR): None of the control peptides (e.g. ACTH-(1-24) are substrates

Compound: PDGF
Effect on glucose uptake in adipocytes (rat adipocytes; PDGF alone): no effect

Compound: TGFα: TGFα (rat), Peninsula Laboratories
[14C]glucose uptake above basal (rat adipocytes; 50 nM TGFα alone): ~ 50%
